In patent US20050197350A1, “Novel quinoline, tetrahydroquinazoline, and pyrimidine derivatives and methods of treatment related to the use thereof” (TAISHO PHARMACEUTICAL CO., LTD., priority 2003, published 2005):

system: MCH receptors; assay: MCH receptor activity class (method not given); conditions: MCH receptor activity class 1-3 (percent of control at 10^-7 M or IC50)

CC(C)c1cccc(C(C)C)c1NC(=O)NC[C@H]1CC[C@@H](Nc2cc(N(C)C)c3ccccc3n2)CC1 [compound 2396] was tested. Which class did it give?
The class was 1 (Class 1: The value of percent of control at 10^−7 M was less than 40% or the value of IC50 was less than 50 nM.).

With Cc1cc(C)c(NC(=S)N[C@H]2CC[C@@H](Nc3nccc(N(C)C)n3)CC2)c(C)c1 [compound 2320, N-(cis-4-{[4-(dimethylamino)pyrimidin-2-yl]amino}cyclohexyl)-N′-mesitylthiourea] as the compound, how does the class read?
Its class is 1 (Class 1: The value of percent of control at 10^−7 M was less than 40% or the value of IC50 was less than 50 nM.).

How did the class turn out when Cc1cccc(C(C)C)c1NC(=O)NC[C@H]1CC[C@@H](Nc2cc(N(C)C)c3ccccc3n2)CC1 [compound 2379] was run?
The class was 2 (Class 2: The value of percent of control at 10^−7 M was from 40% to 60% or the value of IC′50 was from 50 nM to 200 nM.).

With CN(C)c1ccnc(N[C@H]2CC[C@@H](CNC(=O)NC(c3ccccc3)c3ccccc3)CC2)n1 [compound 2435, N-[(cis-4-{[4-(dimethylamino)pyrimidin-2-yl]amino}cyclohexyl)methyl]-N′-(diphenylmethyl)urea] as the compound, how does the class read?
The class was 1 (Class 1: The value of percent of control at 10^−7 M was less than 40% or the value of IC50 was less than 50 nM.).

How did the class turn out when CCc1cccc(CC)c1NC(=O)NC[C@H]1CC[C@@H](Nc2nccc(N(C)C)n2)CC1 [compound 2418, N-(2,6-diethylphenyl)-N′-[(cis-4-{[4-(dimethylamino)pyrimidin-2-yl]amino}cyclohexyl)methyl]urea] was run?
The class was 1 (Class 1: The value of percent of control at 10^−7 M was less than 40% or the value of IC50 was less than 50 nM.).

same assay, conditions: MCH receptor; class by percent of control at 10^-7 M or IC50

With CN(C)c1cc(N[C@H]2CC[C@@H](NC(=O)c3cccs3)CC2)nc2ccccc12 [compound 52] as the compound, how does the class read?
Its class is 3 (Class 3 The value of percent of control at 10^−7 M was more than 60% or the value of IC50 was more than 200 nM.).

CN(C)c1nc(N[C@H]2CC[C@@H](NC(=S)Nc3cccc(OCc4ccccc4)c3)CC2)nc2c1CCCC2 [compound 2008] was tested. Which class did it give?
The class was 3 (Class 3 The value of percent of control at 10^−7 M was more than 60% or the value of IC50 was more than 200 nM.).

How did the class turn out when CN(C)c1nc(N[C@H]2CC[C@@H](NC(=S)Nc3ccc(Cl)cc3)CC2)nc2c1CCCC2 [compound 1934] was run?
Its class is 3 (Class 3 The value of percent of control at 10^−7 M was more than 60% or the value of IC50 was more than 200 nM.).

With Cc1cccc(C(=O)NC[C@H]2CC[C@@H](Nc3cc(N(C)C)c4ccccc4n3)CC2)c1 [compound 177, N-[(cis-4-{[4-(dimethylamino)quinolin-2-yl]amino}cyclohexyl)methyl]-3-methylbenzamide] as the compound, how does the class read?
The class was 3 (Class 3 The value of percent of control at 10^−7 M was more than 60% or the value of IC50 was more than 200 nM.).

same assay, conditions: activity class 1-3: percent of control at 10^-7 M or IC50

For COc1cc(COC(=O)NC[C@H]2CC[C@@H](Nc3cc(N(C)C)c4ccccc4n3)CC2)c([N+](=O)[O-])cc1OC [compound 1561], which class is on record?
The class was 3 (Class 3 The value of percent of control at 10^−7 M was more than 60% or the value of IC50 was more than 200 nM.).

How did the class turn out when CCCCCNC(=O)N[C@H]1CC[C@@H](Nc2nc3c(c(N(C)C)n2)CCCC3)CC1 [compound 1703] was run?
The class was 3 (Class 3 The value of percent of control at 10^−7 M was more than 60% or the value of IC50 was more than 200 nM.).

same assay, conditions: activity class per percent of control at 10^-7 M or IC50

For CN(C)c1nc(N[C@H]2CC[C@@H](NC(=O)c3ccc(-c4cccc([N+](=O)[O-])c4)o3)CC2)nc2c1CCCC2 [compound 1039], which class is on record?
The class was 2 (Class 2: The value of percent of control at 10^−7 M was from 40% to 60% or the value of IC′50 was from 50 nM to 200 nM.).

same assay, conditions: class 1-3 by percent of control at 10^-7 M or IC50

With CN(C)c1ccnc(N[C@H]2CC[C@@H](CNC(=O)c3cccc(Cl)c3Cl)CC2)n1 [compound 442] as the compound, how does the class read?
Its class is 3 (Class 3 The value of percent of control at 10^−7 M was more than 60% or the value of IC50 was more than 200 nM.).

same assay, conditions: class by percent of control at 10^-7 M or IC50

For CN(C)c1cc(N[C@H]2CC[C@@H](CNC(=O)c3ccc(I)o3)CC2)nc2ccccc12 [compound 795, N-[(cis-4-{[4-(dimethylamino)quinolin-2-yl]amino}cyclohexyl)methyl]-5-iodo-2-furamide], which class is on record?
Its class is 3 (Class 3 The value of percent of control at 10^−7 M was more than 60% or the value of IC50 was more than 200 nM.).

How did the class turn out when COc1cc(CC(=O)N[C@H]2CC[C@@H](Nc3nc4c(c(N(C)C)n3)CCCC4)CC2)cc(OC)c1O [compound 976] was run?
Its class is 1 (Class 1: The value of percent of control at 10^−7 M was less than 40% or the value of IC50 was less than 50 nM.).

For CN(C)c1nc(N[C@H]2CC[C@@H](CNC(=O)c3cccc(Cl)c3Cl)CC2)nc2c1CCCC2 [compound 659], which class is on record?
The class was 3 (Class 3 The value of percent of control at 10^−7 M was more than 60% or the value of IC50 was more than 200 nM.).

How did the class turn out when CN(C)c1nc(N[C@H]2CC[C@@H](CNC(=O)c3ccc(-c4ccccc4)cc3)CC2)nc2c1CCCC2 [compound 654] was run?
Its class is 3 (Class 3 The value of percent of control at 10^−7 M was more than 60% or the value of IC50 was more than 200 nM.).

With Cc1ccccc1CNC[C@H]1CC[C@@H](Nc2nc3c(c(N(C)C)n2)CCCC3)CC1 [compound 1427] as the compound, how does the class read?
The class was 3 (Class 3 The value of percent of control at 10^−7 M was more than 60% or the value of IC50 was more than 200 nM.).

With CN(C)c1nc(N[C@H]2CC[C@@H](CNC(=O)c3cccc(I)c3)CC2)nc2c1CCCC2 [compound 620] as the compound, how does the class read?
Its class is 3 (Class 3 The value of percent of control at 10^−7 M was more than 60% or the value of IC50 was more than 200 nM.).

With COc1ccc(CNC[C@H]2CC[C@@H](Nc3cc(N(C)C)c4ccccc4n3)CC2)cc1C [compound 1190] as the compound, how does the class read?
The class was 3 (Class 3 The value of percent of control at 10^−7 M was more than 60% or the value of IC50 was more than 200 nM.).

Which class does the source give for CC(=O)c1cccc(C(=O)N[C@H]2CC[C@@H](Nc3cc(N(C)C)c4ccccc4n3)CC2)c1 [compound 692] here?
Its class is 3 (Class 3 The value of percent of control at 10^−7 M was more than 60% or the value of IC50 was more than 200 nM.).

How did the class turn out when CN(C)c1nc(N[C@H]2CC[C@@H](CNC(=O)c3ccccc3SC(F)F)CC2)nc2c1CCCC2 [compound 644] was run?
The class was 3 (Class 3 The value of percent of control at 10^−7 M was more than 60% or the value of IC50 was more than 200 nM.).

For Cc1nn(-c2ccccc2)nc1C(=O)N[C@H]1CC[C@@H](Nc2nccc(N(C)C)n2)CC1 [compound 325, N-(cis-4-{[4-(dimethylamino)pyrimidin-2-yl]amino}cyclohexyl)-5-methyl-2-phenyl-2H-1,2,3-triazole-4-carboxamide], which class is on record?
Its class is 1 (Class 1: The value of percent of control at 10^−7 M was less than 40% or the value of IC50 was less than 50 nM.).

With C[C@H](C(=O)N[C@H]1CC[C@@H](Nc2cc(N(C)C)c3ccccc3n2)CC1)c1cccc(C(=O)c2ccccc2)c1 [compound 738] as the compound, how does the class read?
Its class is 3 (Class 3 The value of percent of control at 10^−7 M was more than 60% or the value of IC50 was more than 200 nM.).

With COc1ccc(OC)c(CC(=O)NC[C@H]2CC[C@@H](Nc3nccc(N(C)C)n3)CC2)c1 [compound 380] as the compound, how does the class read?
Its class is 3 (Class 3 The value of percent of control at 10^−7 M was more than 60% or the value of IC50 was more than 200 nM.).

same assay, conditions: class by percent of control at 10^−7 M or IC50

How did the class turn out when Cc1cc(N(C)C)nc(NC[C@H]2CC[C@@H](NC(=O)c3ccc(Cl)c(Cl)c3)CC2)n1 [compound 2749] was run?
Its class is 2 (Class 2: The value of percent of control at 10^−7 M was from 40% to 60% or the value of IC′50 was from 50 nM to 200 nM.).

Cc1cc(N(C)C)nc(N[C@H]2CC[C@@H](CNC(=O)c3ccc(Br)cc3)CC2)n1 [compound 2762] was tested. Which class did it give?
The class was 1 (Class 1: The value of percent of control at 10^−7 M was less than 40% or the value of IC50 was less than 50 nM.).
